According to patent publication US9290459B1, “Substituted bicyclic dihydropyrimidinones and their use as inhibitors of neutrophil elastase activity” (Boehringer Ingelheim International GmbH, priority 2013, dated 2016):
Values after ≈ are worked out from the molar mass of the structure shown. Where two headings read alike, the source gives them in different places.

Legend:
[1] = Drug transport across human Caco-2 cells; format: in vitro ADME; settings: human; for Papp A→B at 10 µM / Papp B→A at 10 µM: Caco-2, pH 7.2, Caco-2 monolayers, pH 7.2, 37° C.; for Papp A→B at 10 µM: apical-to-basal, read-out: PEAB; for Papp B→A at 10 µM: basal-to-apical, read-out: PEBA; for efflux ratio at 10 μM: Caco-2, pH 7.2, PEBA/PEAB, Caco-2
Description: (§1) Assay for Determination of Drug Transport Across Human Caco-2 Cells The assay provides information on the potential of a compound to pass the cell membrane, on the extent of oral absorption as well as on whether the compound is actively transported by uptake and/or efflux transporters. […] The compounds are assigned to permeability/absorption classes by comparison of the AB permeabilities with the AB permeabilities of reference compounds with known in vitro permeability and oral absorption in the human. Identical or similar permeabilities in both transport directions indicate passive permeation, vectorial permeability points to additional active transport mechanisms. […] Active transport is concentration-dependently saturable. Caco-2 cells (1-2*10^5 cells/cm^2 area) are seeded on filter inserts (Costar transwell polycarbonate or PET filters, 0.4 nm pore size) and cultured (DMEM) for 10 to 25 days. […] The transport solution (TL) is applied ici to the apical or basolateral donor side for measuring A-B or B-A permeability (3 filter replicates), respectively. The receiver side contains HTP-4 buffer supplemented with 2% BSA. […] Sampled receiver volumes are replaced with fresh receiver solution.

[2] = Metabolic stability with human liver microsomes; format: in vitro ADME; settings: for half-life at 1 μM: human, microsomes, pH 7.6; for t1/2 INVITRO: pooled human liver microsomes, 1 mg/ml protein, 1 μM test compound, 37° C., NADPH
Aqueous solubility = format: physicochemical; settings: McIlvaine buffer pH 6.8, 2.5% DMSO, 24 h shaking; for solubility at 24 h: McIlvaine buffer pH 6.8 with 2.5% DMSO, pH 6.8, aqueous buffer, kinetic from dmso stock
Description: Assay for Determination of Aqueous Solubility […] After 24 h of shaking, the solutions or suspensions are filtered and analyzed by LC-UV. The amount dissolved in buffer is compared to the amount dissolved in the acetonitrile/water (1/1) solution.

[3] = target: Human neutrophil elastase (Homo sapiens (Human), UniProt P08246); assay: Human Neutrophil Elastase Assay; format: biochemical; settings: substrate MeOSuc-Ala-Ala-Pro-Val-AMC 250 μM, pH 7.5
Chain of Human neutrophil elastase (P08246 30-247): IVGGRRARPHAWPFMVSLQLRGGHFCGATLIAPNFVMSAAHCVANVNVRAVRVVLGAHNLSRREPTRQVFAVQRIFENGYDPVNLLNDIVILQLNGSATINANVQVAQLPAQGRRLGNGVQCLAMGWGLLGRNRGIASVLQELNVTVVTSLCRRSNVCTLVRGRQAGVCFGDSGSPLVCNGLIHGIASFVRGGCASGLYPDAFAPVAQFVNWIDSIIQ

human hepatocytes = assay: Metabolic stability with human hepatocytes; format: in vitro ADME; settings: human hepatocyte suspension, 1 μM test compound, scaled with well stirred model
Description: Assay for the Determination of Metabolic Stability with Human Hepatocytes The metabolic degradation of the test compound is assayed in a human hepatocyte suspension. Human hepatocytes (typically cryopreserved) are incubated in an appropriate buffer system (e.g. […] Samples are transferred into acetonitrile and pelleted by centrifugation (5 min) The supernatant is transferred to a new 96-deepwell plate, evaporated under nitrogen and resuspended. The decline of parent compound is analyzed by LC-MS/MS.

[4] = target: neutrophil elastase in human plasma (Homo sapiens (Human), UniProt P08246); assay: Neutrophil elastase inhibitory activity in human plasma (zymosan-stimulated blood); format: biochemical
Chain of neutrophil elastase in human plasma (P08246 30-247): as above
Description: Assay for the Determination of Neutrophil Elastase Inhibitory Activity in Human Plasma
Citrated blood from human healthy donors is mixed with zymosan suspension and incubated at room temperature. This leads to the stimulation of neutrophils and the release of neutrophil elastase into the plasma. The stimulated blood is centrifuged to generate the neutrophil elastase enriched plasma.
Various concentrations of the neutrophil elastase inhibitor are incubated with plasma. […] A dose response curve is generated to calculate the EC50 of the inhibitor.

Caco-2 cells = assay: Drug transport across human Caco-2 cells; format: in vitro ADME; settings: for PEAB / PEBA: Caco-2 monolayers, pH 7.2, 37° C.; for PEAB: apical-to-basal; for PEBA: basal-to-apical; for Efflux ratio: PEBA/PEAB, Caco-2
Description: as §1

[5] = human neutrophil elastase, read-out: IC50
[6] = neutrophil elastase enriched human plasma from zymosan-stimulated blood, read-out: EC50

Compound	Papp A→B at 10 µM [1] [×10⁻⁶ cm/s]	Papp B→A at 10 µM [1] [×10⁻⁶ cm/s]	half-life at 1 μM [2] [h]	solubility at 24 h (Aqueous solubility) [µg/mL]	IC50 [3, 5] [nM]	CL (predicted human hepatic in vivo blood clearance) (human hepatocytes) [mL/min/kg]	further results
CS(=O)(=O)c1cc(C#N)ccc1[C@@H]1C2=C(CCC2=O)N(c2cccc(C(F)(F)F)c2)C(=O)N1CC#N [Example 23, (S)-4-(3-(Cyanomethyl)-2,5-dioxo-1-(3-(trifluoromethyl)phenyl)-2,3,4,5,6,7-hexahydro-1H-cyclopenta[d]pyrimidin-4-yl)-3-(methylsulfonyl)benzonitrile]	10.3	93.5	> 2.17	15 (≈ 29.2 µM)	3.4	0	efflux ratio at 10 μM [1]: 9.1; EC50 [4, 6]: < 1 nM
N#Cc1ccc(C2C3=C(CCC3=O)N(c3cccc(C(F)(F)F)c3)C(=O)N2C(=O)N[C@H]2CCC[C@@H]2O)cc1 (stereo partly drawn) [Example 42.4]	39.7	78	> 2.17	21 (≈ 40 µM)	–	0	efflux ratio at 10 μM [1]: 2
CS(=O)(=O)c1cc(C#N)ccc1C1NC(=O)N(c2cccc(C(F)F)c2)C2=C1C(=O)CC2 (stereo not drawn) [Example 15.4, 4-(1-(3-(difluoromethyl)phenyl)-2,5-dioxo-2,3,4,5,6,7-hexahydro-1H-cyclopenta[d]pyrimidin-4-yl)-3-(methylsulfonyl)benzonitrile]	–	–	> 2.17	69 (≈ 151 µM)	9.7	0	–
N#Cc1ccc(C2C3=C(CCC3=O)N(c3cccc(C(F)(F)F)c3)C(=O)N2C(=O)NC2(CO)CC2)cc1 (stereo not drawn) [Example 41.5]	–	–	–	–	–	–	PEAB (Caco-2 cells): 8.85 ×10⁻⁶ cm/s; PEBA (Caco-2 cells): 77 ×10⁻⁶ cm/s; Efflux ratio (Caco-2 cells): 8.7; Aqueous solubility (Aqueous solubility): 82 µg/mL
CC(C)NC(=O)N1C(=O)N(c2cccc(C(F)F)c2)C2=C(C(=O)CC2)C1c1ccc(C#N)cc1S(C)(=O)=O (stereo not drawn) [Example 53.4]	9.85	94.4	> 2.17	14 (≈ 25.8 µM)	–	0	–
CN1C(=O)N(c2cccc(C(F)(F)F)c2)C2=C(C(=O)CC2)[C@H]1c1ccc(C#N)cc1S(C)(=O)=O [Example 25, (S)-4-(3-Methyl-2,5-dioxo-1-(3-(trifluoromethyl)phenyl)-2,3,4,5,6,7-hexahydro-1H-cyclopenta[d]pyrimidin-4-yl)-3-(methylsulfonyl)benzonitrile]	56.7	74	> 2.17	62 (≈ 127 µM)	< 1	2	efflux ratio at 10 μM [1]: 1.3; EC50 [4, 6]: 1 nM
N#Cc1ccc([C@@H]2C3=C(CCC3=O)N(c3cccc(C(F)(F)F)c3)C(=O)N2C(=O)N[C@H]2COC[C@@H]2O)cc1 [Example 45.5]	–	–	> 2.17	56 (≈ 106 µM)	–	0	–
N#Cc1ccc(C2C3=C(CCC3=O)N(c3cccc(C(F)(F)F)c3)C(=O)N2CC(=O)N2CCC2)cc1 (stereo not drawn) [Example 6.3]	–	–	–	–	–	4	t1/2 INVITRO [2]: >2.17 h; Aqueous solubility (Aqueous solubility): 121 µg/mL
CS(=O)(=O)c1cc(C#N)ccc1C1C2=C(CCC2=O)N(c2cccc(C(F)F)c2)C(=O)N1C(=O)NC1CC1 (stereo not drawn) [Example 53.3]	–	–	–	34 (≈ 62.9 µM)	–	0	–
N#Cc1ccc(C2C3=C(CCC3=O)N(c3cccc(C(F)(F)F)c3)C(=O)N2C(=O)NC2CCOCC2)cc1 (stereo not drawn) [Example 41.16]	–	–	–	–	–	–	PEAB (Caco-2 cells): 58.9 ×10⁻⁶ cm/s; PEBA (Caco-2 cells): 57.7 ×10⁻⁶ cm/s; Efflux ratio (Caco-2 cells): 1.0; t1/2 INVITRO [2]: >2.17 h
CCS(=O)(=O)c1cc(C#N)ccc1C1NC(=O)N(c2cccc(C(F)(F)F)c2)C2=C1C(=O)CC2 (stereo not drawn) [Example 14, 4-(2,5-Dioxo-1-(3-(trifluoromethyl)phenyl)-2,3,4,5,6,7-hexahydro-1H-cyclopenta[d]pyrimidin-4-yl)-3-(ethylsulfonyl)benzonitrile]	–	–	> 2.17	45 (≈ 91.9 µM)	4.7	4	–
CS(=O)(=O)CCNC(=O)N1C(=O)N(c2cccc(C(F)(F)F)c2)C2=C(C(=O)CC2)C1c1ccc(C#N)cc1F (stereo not drawn) [Example 49.3]	–	–	> 2.17	32 (≈ 56.7 µM)	–	0	–
N#Cc1ccc([C@@H]2C3=C(CCC3=O)N(c3cccc(C(F)(F)F)c3)C(=O)N2C(=O)NCCO)cc1 [Example 7.2A, (R)-4-(4-Cyanophenyl)-N-(2-hydroxyethyl)-2,5-dioxo-1-(3-(trifluoromethyl)phenyl)-4,5,6,7-tetrahydro-1H-cyclopenta[d]pyrimidine-3(2H)-carboxamide]	4.03	63.3	> 2.17	72 (≈ 149 µM)	–	0	–
CNC(=O)N1C(=O)N(c2cccc(C(F)(F)F)c2)C2=C(C(=O)CC2)[C@H]1c1ccc(C#N)cc1 [Example 7.1A, (R)-4-(4-Cyanophenyl)-N-methyl-2,5-dioxo-1-(3-(trifluoromethyl)phenyl)-4,5,6,7-tetrahydro-1H-cyclopenta[d]pyrimidine-3(2H)-carboxamide]	72.7	68.1	> 2.17	23 (≈ 50.6 µM)	–	3	–
N#Cc1ccc([C@@H]2C3=C(CCC3=O)N(c3cccc(C(F)F)c3)C(=O)N2C(=O)NCCCO)cc1 [Example 52A, (R)-4-(4-Cyanophenyl)-1-(3-(difluoromethyl)phenyl)-N-(3-hydroxypropyl)-2,5-dioxo-4,5,6,7-tetrahydro-1H-cyclopenta[d]pyrimidine-3(2H)-carboxamide]	–	–	> 2.17	88 (≈ 183 µM)	< 1	8	EC50 [4, 6]: < 1 nM
CCNC(=O)N1C(=O)N(c2cccc(C(F)F)c2)C2=C(C(=O)CC2)C1c1ccc(C#N)cc1 (stereo not drawn) [Example 52.2]	70.8	80.3	> 2.17	16 (≈ 35.5 µM)	< 1	3	efflux ratio at 10 μM [1]: 1.1; EC50 [4, 6]: 1 nM
CS(=O)(=O)c1cc(C#N)ccc1[C@H]1NC(=O)N(c2cccc(C(F)F)c2)C2=C1C(=O)CC2 [Example 15.4A, (S)-4-(1-(3-(Difluoromethyl)phenyl)-2,5-dioxo-2,3,4,5,6,7-hexahydro-1H-cyclopenta[d]pyrimidin-4-yl)-3-(methylsulfonyl)benzonitrile]	3	46	> 2.17	69 (≈ 151 µM)	2.9	–	efflux ratio at 10 μM [1]: 15; EC50 [4, 6]: 2 nM
CN1C(=O)N(c2cccc(C(F)(F)F)c2)C2=C(C(=O)CC2)C1c1ccc(C#N)cc1[S+](C)[O-] (single isomer, unassigned) [Example 30A, 4-(3-Methyl-2,5-dioxo-1-(3-(trifluoromethyl)phenyl)-2,3,4,5,6,7-hexahydro-1H-cyclopenta[d]pyrimidin-4-yl)-3-(methylsulfinyl)benzonitrile]	–	–	–	–	–	–	PEAB (Caco-2 cells): 3.52 ×10⁻⁶ cm/s; PEBA (Caco-2 cells): 39 ×10⁻⁶ cm/s; Efflux ratio (Caco-2 cells): 11.1; t1/2 INVITRO [2]: >2.17 h; Aqueous solubility (Aqueous solubility): 51 µg/mL; IC50 ([3]; IC50, human neutrophil elastase): 1.3 nM; EC50 ([4]; EC50, neutrophil elastase enriched human plasma from zymosan-stimulated blood): 1 nM
N#Cc1ccc(C2C3=C(CCC3=O)N(c3cccc(C(F)(F)F)c3)C(=O)N2C(=O)N[C@H]2COC[C@H]2O)cc1 (stereo partly drawn) [Example 42.6]	–	–	–	67 (≈ 127 µM)	–	5	–
CN(C)C(=O)CN1C(=O)N(c2cccc(C(F)(F)F)c2)C2=C(C(=O)CC2)C1c1ccc(C#N)cc1 (stereo not drawn) [Example 6.2]	–	–	–	–	–	6	Aqueous solubility (Aqueous solubility): 77 µg/mL
CNC(=O)N1C(=O)N(c2cccc(C(F)(F)F)c2)C2=C(C(=O)CC2)C1c1ccc(C#N)cn1 (stereo not drawn) [Example 50.1]	66.7	66.1	–	41 (≈ 90 µM)	4	1	efflux ratio at 10 μM [1]: 1; EC50 [4, 6]: 16 nM
